From article PMC8778818, “Synthesis, Structural Characterization and Anticancer Activity of New 5-Trifluoromethyl-2-thioxo-thiazolo[4,5-d]pyrimidine Derivatives” (Pharmaceuticals, 2022)

What was measured:
[1] = test system: SK-MEL-2; test: NCI-60 screen, Melanoma SK-MEL-2; type: cell-based, human; conditions: for Growth of Cells (%): SK-MEL-2, 10^−5 M one dose
[2] = test system: NCI-H322M; test: NCI-60 screen, Non-Small Cell Lung Cancer NCI-H322M; type: cell-based, human; conditions: for Growth of Cells (%): 10^−5 M one dose
[3] = test system: BT-549; test: NCI-60 screen, Breast Cancer BT-549; type: cell-based, human; conditions: for Growth of Cells (%): BT-549, 10^−5 M one dose
[4] = test system: NCI-H522; test: NCI-60 screen, Non-Small Cell Lung Cancer NCI-H522; type: cell-based, human; conditions: for Growth of Cells (%): NCI-H522, 10^−5 M one dose
[5] = test system: MDA-MB-468; test: NCI-60 screen, Breast Cancer MDA-MB-468; type: cell-based, human; conditions: for Growth of Cells (%): MDA-MB-468, 10^−5 M one dose
Experimental: The search for the cytotoxic activity of new derivatives usually starts with in vitro cell-based screening. Four compounds 2b (NSC D-745983/1), 3b (NSC D-766111/1), 4b (NSC D-785591/1) and 4c (NSC D-771706/1), selected by the National Cancer Institute were tested in the anticancer screen for a panel of approximately 60 human disease-oriented tumor cell lines, organized into subpanels derived from nine human cancer types—leukemia, melanoma, and cancers of the lung, colon, brain, breast, ovary, prostate, and kidney. They were initially tested at only one concentration of 10 µM (10^−5 M) for each cell line, which were inoculated and preincubated on a microtiter plate for […]. The results of the one-dose anticancer assay for the tested new compounds are reported as the percentage of the treated cell growth in comparison with untreated no-drug control. This allows for detection of the growth inhibition—values 0–100 and cytotoxicity; negative numbers mean cell death.
Antitumor activity in five dose testing (10^−4−10^−8 M) is expressed by three different dose–response parameters for each of the 60 human tumor cell lines. The GI50 value (molar concentration causing a half-growth inhibition), TGI (molar concentration required for total growth inhibition), which signifies the cytostatic effect, and LC50 (molar concentration of the compound required for 50% cell death). LC50 signifies the cytotoxic effect. […] Nevertheless, the selectivity for GI50 can be seen for several cell lines within subpanel leukemia (SR, log GI50 −6.36) and non-small cell lung cancer (NCI-H522, log GI50 −6.69).
The antitumor screening (NCI-60) was performed at the National Cancer Institute, Bethesda, USA. A total panel of approximately 60 human tumor cell lines derived from nine different cancer types (leukemia, non-small cell lung, colon, brain, melanoma, ovarian, renal, prostate and breast) formed the basis of this in vitro test. The origins and processing of the cell lines used in the study were described previously. First, the compounds were evaluated in a primary anticancer assay at 10^−5 M. Results for each tested compound are reported as the percent of growth of the treated cells. […] The human tumor cell lines of the cancer screening panel were grown in an RMPI 1640 medium containing 5% fetal bovine serum and 2 mM of L-glutamine. Each cell line was inoculated and preincubated at 37 °C, 5% CO2, 95% air and 100% relative humidity for 24 h, before the addition of the test compound into 96-well microtiter plates in 100 µL at plating densities ranging from 5000 to 40,000 cells/well. The density of inoculum depends on the type of tumor cell and its growth characteristics. The screened compounds were solubilized in dimethyl sulfoxide at 400-fold the desired final concentration and stored frozen. At the time of the test agents’ addition, an aliquot of frozen concentrate was thawed and diluted to twice the desired final concentration with complete medium containing 50 µg/mL gentamicin. Next, the test compounds were evaluated at the four additional 10-fold dilutions to reach the final concentrations plus control. Aliquots of 100 µL of the different dilutions (100, 10, 1, […] µM/mL) of the tested compounds were added to microtiter wells, and the culture was incubated for 48 h under the same conditions. Cell were fixed in situ by the addition of 50 µL of cold 50% trichloroacetic acid and incubated for 60 min at 4 °C. The supernatant was discarded; plates were washed five times with water and air-dried. Sulforhodamine B at 0.4% in 1% acetic acid, 100 µL, was added to each well, then plates were incubated for 10 min at room temperature. Unbound dye was removed by washing five times with 1% acetic acid and air dried. The protein-bound stain was solubilized with a […] trizma base and the absorbance was read on an automated plate reader. A wavelength of 515 nm was used to read optical densities. […]

[6] = test system: NCI-H460; test: NCI-60 screen, Non-Small Cell Lung Cancer NCI-H460; type: cell-based, human; conditions: for Growth of Cells (%): NCI-H460, 10^−5 M one dose
[7] = test system: HOP-62; test: NCI-60 screen, Non-Small Cell Lung Cancer HOP-62; type: cell-based; conditions: for Growth of Cells (%): HOP-62, 10^−5 M one dose
[8] = test system: SK-MEL-5; test: NCI-60 screen, Melanoma SK-MEL-5; type: cell-based, human; conditions: for Growth of Cells (%): SK-MEL-5, 10^−5 M one dose
[9] = Homo sapiens, SK-MEL-2, five doses 10^−4–10^−8 M
[10] = Homo sapiens, NCI-H522, five doses 10^−4–10^−8 M

O=c1[nH]c(C(F)(F)F)nc2c1sc(=S)n2-c1ccccc1 [Compound 2b, 3-phenyl-2-thioxo-5-(trifluoromethyl)-2,3-dihydro[1, 3]thiazolo[4,5-d]pyrimidin-7(6H)-one]
Growth of Cells (%) [1]: 97.36% | Growth of Cells (%) [2]: 128.80% | Growth of Cells (%) [3]: 130.31% | Growth of Cells (%) [4]: 90.35% | Growth of Cells (%) [5]: 91.37% | Growth of Cells (%) [6]: 123.50%

FC(F)(F)c1nc(Cl)c2sc(=S)n(-c3ccccc3)c2n1 [Compound 3b, 7-chloro-3-phenyl-5-(trifluoromethyl)[1, 3]thiazolo[4,5-d]pyrimidine-2(3H)-thione]
GI50 [1, 9]: 2 µM | LC50 [1, 9]: 7.24 µM | Growth of Cells (%) [1]: 55.66% | log TGI ([1]; SK-MEL-2, five doses 10^−4–10^−8 M): −5.42 log M | Growth of Cells (%) [7]: 95.98% | log TGI ([7]; HOP-62, five doses 10^−4–10^−8 M): −5.46 log M | GI50 ([7]; Homo sapiens, HOP-62, read-out: log GI50 (converted)): 1.86 µM | CC50 ([7]; Homo sapiens, HOP-62, five doses 10^−4–10^−8 M, read-out: log LC50 (the source's name) (converted)): 6.31 µM | GI50 ([8]; Homo sapiens, SK-MEL-5, five doses 10^−4–10^−8 M): 2.19 µM | CC50 ([8]; Homo sapiens, SK-MEL-5, five doses 10^−4–10^−8 M, read-out: log LC50 (the source's name) (converted)): 12.3 µM | Growth of Cells (%) [8]: 81.95% | log TGI ([8]; SK-MEL-5, five doses 10^−4–10^−8 M): −5.31 log M | Growth of Cells (%) [2]: 101.54% | GI50 ([2]; Homo sapiens, five doses 10^−4–10^−8 M): 3.8 µM | CC50 ([2]; Homo sapiens, five doses 10^−4–10^−8 M, read-out: log LC50 (the source's name) (converted)): 38 µM | log TGI ([2]; five doses 10^−4–10^−8 M): −4.90 log M | Growth of Cells (%) [3]: 73.90% | log TGI ([3]; BT-549, five doses 10^−4–10^−8 M): −5.50 log M | GI50 ([3]; Homo sapiens, BT-549, five doses 10^−4–10^−8 M): 1.51 µM | CC50 ([3]; Homo sapiens, BT-549, five doses 10^−4–10^−8 M, read-out: log LC50 (the source's name) (converted)): 6.76 µM | GI50 [4, 10]: 0.204 µM | LC50 [4, 10]: 1.51 µM | Growth of Cells (%) [4]: −67.57% | log TGI ([4]; NCI-H522, five doses 10^−4–10^−8 M): −6.33 log M | GI50 ([5]; Homo sapiens, MDA-MB-468, five doses 10^−4–10^−8 M): 1.7 µM | CC50 ([5]; Homo sapiens, MDA-MB-468, five doses 10^−4–10^−8 M, read-out: log LC50 (the source's name) (converted)): 7.41 µM | Growth of Cells (%) [5]: 54.38% | log TGI ([5]; MDA-MB-468, five doses 10^−4–10^−8 M): −5.45 log M | GI50 ([6]; Homo sapiens, NCI-H460, five doses 10^−4–10^−8 M): 3.24 µM | CC50 ([6]; Homo sapiens, NCI-H460, five doses 10^−4–10^−8 M, read-out: log LC50 (the source's name) (converted)): 50.1 µM | Growth of Cells (%) [6]: 68.89% | log TGI ([6]; NCI-H460, five doses 10^−4–10^−8 M): −4.99 log M

CCNc1nc(C(F)(F)F)nc2c1sc(=S)n2-c1ccccc1 [Compound 4b, 7-(ethylamino)-3-phenyl-5-(trifluoromethyl)[1, 3]thiazolo[4,5-d]pyrimidine-2(3H)-thione]
Growth of Cells (%) [1]: 88.08% | Growth of Cells (%) [7]: 86.06% | Growth of Cells (%) [8]: 87.63% | Growth of Cells (%) [3]: 95.21% | Growth of Cells (%) [4]: 70.40% | Growth of Cells (%) [5]: 81.60% | Growth of Cells (%) [6]: 100.34%

Fc1ccc(CNc2nc(C(F)(F)F)nc3c2sc(=S)n3-c2ccccc2)cc1 [Compound 4c]
Growth of Cells (%) [1]: 95.77% | Growth of Cells (%) [7]: 92.88% | Growth of Cells (%) [8]: 105.71% | Growth of Cells (%) [3]: 98.87% | Growth of Cells (%) [4]: 90.73% | Growth of Cells (%) [5]: 96.15% | Growth of Cells (%) [6]: 109.73%
